Source: ChEMBL document CHEMBL1122571, “Design and synthesis of tetrahedral intermediate analogues as potential dihydroorotase inhibitors” (J Med Chem, 1984)
pIC50: −log10 of the molar value.

molecular target: Multifunctional protein CAD (Mus musculus, UniProt B2RQC6); assay: Compound was evaluated for the inhibition of dihydroorotase enzyme from mouse Ehrlich ascites at the concentration of 10 uM and at pH 7.37; details: read-out: I50
Sequence (B2RQC6 whole entry): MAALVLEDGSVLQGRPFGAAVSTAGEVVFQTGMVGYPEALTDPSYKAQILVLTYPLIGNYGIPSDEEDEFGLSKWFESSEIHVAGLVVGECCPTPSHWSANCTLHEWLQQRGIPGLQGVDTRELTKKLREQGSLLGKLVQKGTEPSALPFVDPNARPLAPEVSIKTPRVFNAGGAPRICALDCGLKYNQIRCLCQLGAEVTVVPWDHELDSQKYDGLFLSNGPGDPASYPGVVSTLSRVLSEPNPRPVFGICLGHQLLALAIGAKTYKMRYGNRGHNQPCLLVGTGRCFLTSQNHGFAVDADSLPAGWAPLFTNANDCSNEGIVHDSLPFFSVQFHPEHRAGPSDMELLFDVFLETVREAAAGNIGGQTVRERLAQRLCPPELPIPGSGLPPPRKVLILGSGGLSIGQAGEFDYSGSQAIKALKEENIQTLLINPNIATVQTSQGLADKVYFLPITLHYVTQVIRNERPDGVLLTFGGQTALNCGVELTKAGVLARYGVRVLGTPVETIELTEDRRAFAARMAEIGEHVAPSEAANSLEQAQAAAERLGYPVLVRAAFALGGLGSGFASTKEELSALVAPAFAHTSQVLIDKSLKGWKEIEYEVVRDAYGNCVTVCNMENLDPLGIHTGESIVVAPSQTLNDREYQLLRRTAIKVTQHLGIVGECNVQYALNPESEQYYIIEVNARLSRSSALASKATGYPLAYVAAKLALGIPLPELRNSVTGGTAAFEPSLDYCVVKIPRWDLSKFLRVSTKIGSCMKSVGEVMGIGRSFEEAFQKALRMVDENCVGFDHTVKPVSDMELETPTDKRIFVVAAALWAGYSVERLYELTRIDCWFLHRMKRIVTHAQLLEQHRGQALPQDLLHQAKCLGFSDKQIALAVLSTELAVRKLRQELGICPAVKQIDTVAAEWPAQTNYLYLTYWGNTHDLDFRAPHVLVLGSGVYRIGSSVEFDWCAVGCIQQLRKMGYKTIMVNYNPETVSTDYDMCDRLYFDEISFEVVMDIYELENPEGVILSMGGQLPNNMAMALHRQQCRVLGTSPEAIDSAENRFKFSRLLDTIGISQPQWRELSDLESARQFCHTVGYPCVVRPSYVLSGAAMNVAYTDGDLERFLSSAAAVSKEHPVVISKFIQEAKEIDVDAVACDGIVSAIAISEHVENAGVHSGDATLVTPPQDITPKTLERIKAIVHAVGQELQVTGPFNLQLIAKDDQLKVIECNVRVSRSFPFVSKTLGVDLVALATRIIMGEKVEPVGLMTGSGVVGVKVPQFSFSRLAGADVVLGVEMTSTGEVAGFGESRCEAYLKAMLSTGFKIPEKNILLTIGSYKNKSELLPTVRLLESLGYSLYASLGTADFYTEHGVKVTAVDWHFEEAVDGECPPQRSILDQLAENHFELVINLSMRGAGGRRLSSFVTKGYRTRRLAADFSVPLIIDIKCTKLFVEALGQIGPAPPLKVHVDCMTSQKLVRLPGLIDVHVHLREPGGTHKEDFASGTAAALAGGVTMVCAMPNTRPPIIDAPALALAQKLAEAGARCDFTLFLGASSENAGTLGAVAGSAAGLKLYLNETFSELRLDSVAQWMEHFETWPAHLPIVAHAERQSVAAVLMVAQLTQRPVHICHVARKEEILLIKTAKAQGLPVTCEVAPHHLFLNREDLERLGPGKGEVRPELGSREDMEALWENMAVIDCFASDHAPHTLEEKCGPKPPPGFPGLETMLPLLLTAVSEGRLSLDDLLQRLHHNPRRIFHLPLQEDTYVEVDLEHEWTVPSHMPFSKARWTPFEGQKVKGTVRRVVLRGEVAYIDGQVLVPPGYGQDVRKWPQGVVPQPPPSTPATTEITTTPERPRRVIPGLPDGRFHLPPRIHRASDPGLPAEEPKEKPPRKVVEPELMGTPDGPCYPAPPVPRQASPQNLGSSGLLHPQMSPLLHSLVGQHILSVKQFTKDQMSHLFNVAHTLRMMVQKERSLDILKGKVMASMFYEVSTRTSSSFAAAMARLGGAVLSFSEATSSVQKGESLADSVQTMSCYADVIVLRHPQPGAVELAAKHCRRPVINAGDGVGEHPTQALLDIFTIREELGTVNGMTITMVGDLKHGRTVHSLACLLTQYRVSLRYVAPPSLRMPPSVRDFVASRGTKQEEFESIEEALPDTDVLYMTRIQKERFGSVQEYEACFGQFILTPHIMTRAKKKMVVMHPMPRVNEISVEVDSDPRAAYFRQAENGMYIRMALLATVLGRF

Row | pIC50 | Structure (SMILES)
1 | < 3.00 | C[S+]1([O-])=NC(=O)NC(C(=O)O)C1 (stereo not given)
2 | > 3.00 | O=C1CSCC(C(=O)O)N1 (stereo not given)
3 | 3.74 | O=C1C[S+]([O-])CC(C(=O)O)N1 (stereo not given)
4 | 3.28 | O=C1NC(C(=O)O)CS(=O)(=O)N1 (stereo not given)

Row | Structure (SMILES) | pIC50
5 | NC(=O)NC(CP(=O)(O)O)C(=O)O (stereo not given) | < 3.00
